Results published in paper PMC6471485, “Selective Inhibitors of a Human Prolyl Hydroxylase (OGFOD1) Involved in Ribosomal Decoding” (Chemistry (Weinheim an Der Bergstrasse, Germany), 2019).

Columns and labels:
MINA53 = molecular target: T1, MINA53 (Homo sapiens, UniProt Q8IUF8); experiment: MINA53 IC50 determination, RapidFire MS; assay type: biochemical
T1 construct: 1-464 and NO66116-641 were cloned into pFB-LIC-Bse; His (N); made in house; host or cells: Sf9 insect cells
Method: reactions were quenched after 4 min. KDM4A inhibition was tested as described previously using a formaldehyde dehydrogenase (FDH) assay.[9] JARID1B and JARID1C inhibition was tested as described previously using reported AlphaScreen-based assays.[10] MINA531-464 and NO66116-641 were cloned into pFB-LIC-Bse, and the N-terminal His-tagged proteins were produced in Sf9 insect cells. The MINA53 peptide substrate Rpl27a […]
(Gly31 – Pro49 […]) and the NO66 peptide substrate Rpl8
(Asn205 – Thr224 […]) were synthesized by Peptide Protein
Research Ltd (Fareham, Hampshire, UK) to >95% purity. IC50 determinations were performed in 384-well polypropylene plates (Greiner Bio One, Cat Number 781096), and compound dispenses were performed using an ECHO 550 acoustic dispenser (Labcyte, Sunnyvale, CA). […]
RapidFire integrator software (Agilent). Percent conversion was calculated in Excel, and IC50 curves were generated using Prism v. […]
Assays consisted of enzyme (2 µM), inhibitor (200 µM), MnCl2 (50 µM), and SYPRO Orange (1:5000 dilution), all prepared in 50 mM HEPES, pH 7.5. […] An Opticon thermal cycler (MJ Research Inc) was used to control temperature and measure fluorescence. […]
CPMG Binding Experiments: Binding of the inhibitors to the proteins was monitored using Carr-Purcell-Meiboom-Gill (CPMG)-edited 1H spectra. […]

Ofd1 = molecular target: T2, Ofd1 (Schizosaccharomyces pombe, UniProt Q11120); experiment: Ofd1 inhibition assay (Figure S12); assay type: biochemical, yeast; conditions: Ofd1 1 µM (Figure S12)
T2 sequence (Q11120 1-515): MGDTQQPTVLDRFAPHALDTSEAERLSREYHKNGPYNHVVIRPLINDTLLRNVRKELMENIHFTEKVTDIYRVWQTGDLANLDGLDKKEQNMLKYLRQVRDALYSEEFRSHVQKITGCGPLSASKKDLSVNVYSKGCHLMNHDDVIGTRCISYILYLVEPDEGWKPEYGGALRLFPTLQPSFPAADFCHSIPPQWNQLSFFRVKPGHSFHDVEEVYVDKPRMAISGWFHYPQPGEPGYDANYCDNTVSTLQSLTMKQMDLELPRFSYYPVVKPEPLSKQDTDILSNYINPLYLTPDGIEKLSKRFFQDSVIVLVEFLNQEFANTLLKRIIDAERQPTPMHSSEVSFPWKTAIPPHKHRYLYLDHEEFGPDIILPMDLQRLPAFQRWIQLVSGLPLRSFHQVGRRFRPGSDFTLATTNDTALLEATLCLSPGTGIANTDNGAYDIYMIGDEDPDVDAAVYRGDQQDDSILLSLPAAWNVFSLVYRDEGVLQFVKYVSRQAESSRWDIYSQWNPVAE

T1 sequence (Q8IUF8 1-464 limits assumed): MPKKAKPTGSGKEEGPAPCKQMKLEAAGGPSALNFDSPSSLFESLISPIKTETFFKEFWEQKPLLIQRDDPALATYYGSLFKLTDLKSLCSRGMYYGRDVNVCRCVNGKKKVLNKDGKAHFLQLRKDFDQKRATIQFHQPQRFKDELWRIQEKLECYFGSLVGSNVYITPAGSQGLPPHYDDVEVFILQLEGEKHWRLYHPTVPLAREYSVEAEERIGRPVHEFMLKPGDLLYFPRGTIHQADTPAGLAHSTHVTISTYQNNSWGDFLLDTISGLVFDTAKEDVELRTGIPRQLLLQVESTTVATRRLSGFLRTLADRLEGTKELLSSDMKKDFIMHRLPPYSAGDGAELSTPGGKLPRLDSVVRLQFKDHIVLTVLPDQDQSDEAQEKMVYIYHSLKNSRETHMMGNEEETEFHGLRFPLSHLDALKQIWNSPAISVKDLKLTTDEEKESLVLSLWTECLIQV

Compound | IC50 (MINA53) [µM] | inhibition of Ofd1, in words (Ofd1)
Cn1c(O)c(C(=O)CCc2cccs2)c(=O)n(C)c1=O [compound 42] | > 100 | potently inhibit
Cn1c(O)c(C(=O)CCc2ccccc2)c(=O)n(C)c1=O [compound 26] | > 100 | potently inhibit
